pIC50: −log10 of the molar value. Where a name gives a salt, the structure may show the parent alone. Read-outs that look alike come from different tables or passages of the source.
Key:
OXA-23 β-lactamase = biological target: T1, OXA-23 β-lactamase (Acinetobacter baumannii, UniProt Q9L4P2); assay: β-lactamase enzyme inhibition assay (nitrocefin substrate), OXA-23 crude extract; format: biochemical; details: nitrocefin 100 μM, 37° C., PBS pH 7.0; read-out: OXA-23 IC50
T1 construct: crude β-lactamase extracts were prepared from 20 ml overnight cultures; endogenous in cells; host or cells: Acinetobacter baumannii cells containing OXA-23 (crude freeze-thaw extract)
T1 sequence (Q9L4P2 18-273): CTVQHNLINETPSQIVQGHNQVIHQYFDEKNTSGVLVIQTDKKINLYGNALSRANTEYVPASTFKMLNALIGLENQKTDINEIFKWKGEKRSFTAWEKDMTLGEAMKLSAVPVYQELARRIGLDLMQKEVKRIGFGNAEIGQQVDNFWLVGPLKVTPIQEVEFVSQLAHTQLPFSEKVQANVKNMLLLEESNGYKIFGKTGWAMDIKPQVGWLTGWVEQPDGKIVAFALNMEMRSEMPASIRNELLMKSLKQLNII
Protocol: For OXA-23 β-lactamase, crude β-lactamase extracts were prepared from 20 ml overnight cultures with shaking. Acenitobacter baumanni cells containing OXA-23 were further diluted 10-fold and grown to mid-log phase (OD at 600 nm, 0.5-0.8) in Mueller-Hinton II (MH-II) broth at 37° C. The cells were pelleted at 5000 g, washed and resuspended in 2 mL PBS pH 7.0. The β-lactamases were extracted by four cycles of freezing and thawing followed by centrifugation. β-lactamase activity in the extracts was measured with the chromogenic cephalosporin nitrocefin. The amount of protein in each β-lactamase preparation was determined by the bicinchoninic acid (BCA) assay.
(§1) β-lactamase Inhibition. To determine the level of inhibition of β-lactamase enzymes, compounds were diluted in PBS at pH 7.0 to yield concentrations between 100 and 0.005 μM in microtiter plates. An equal volume of diluted enzyme stock was added, and the plates were incubated at 37° C. for 10 min. Nitrocefin solution was then dispensed as substrate into each well at a final concentration of 100 μM, and the plates were immediately read with the kinetic program at 486 nm for 10 min on the SPECTRAMAX® Plus^384 (high-throughput microplate spectrophotometer; Molecular Devices Corp., Sunnyvale, Calif.). Maximum rates of metabolism were then compared to those in control wells (without inhibitors), and percentages of enzyme inhibition were calculated for each concentration of inhibitor. The concentration of inhibitor needed to reduce the initial rate of hydrolysis of substrate by 50% (IC50) was calculated as the residual activity of β-lactamase at 486 nm using the SoftMax Pro 5.0 software (Molecular Devices Corp.).

[1] = biological target: T2, VIM-2 metallo β-lactamase (Pseudomonas aeruginosa, UniProt Q9K2N0); assay: β-lactamase enzyme inhibition assay (nitrocefin substrate), VIM-2; format: biochemical; details: nitrocefin 100 μM, 37° C., PBS pH 7.0; read-out: VIM-2 IC50
T2 construct: made in house
Protocol: Isolation of β-lactamases. For SHV-5, p99 AmpC, KPC-2 and CTX-M15 β-lactamases, E. coli BL21(DE3) bacterial cells carrying expression plasmids (expressed as native untagged proteins) for the individual β-lactamases were grown in 1 L of Superbroth (Teknova Inc. Hollister, Calif.) supplemented with 100 μg/ml kanamycin and 1×5052 (0.5% glycerol, 0.05% glucose and 0.2% α-lactose) at 35° C. for 18-20 hours. Cells were harvested by centrifugation (4,000×g, 4° C., 20 min), and resuspended in 50 ml of 10 mM HEPES pH 7.5 (1/20 of the initial volume). The cells were lysed by sonication (5 pulses of 45 seconds) at 45 W on ice. The lysates were clarified by centrifugation at 10,000×g for 40 minutes at 4° C. Samples were diluted 5-fold in 50 mM sodium acetate pH 5.0, stored overnight at 4° C., after which they were centrifuged at 10,000×g for 30 minutes to clarify, and filtered through 0.45 μm filters. The samples were loaded onto a 5 ml Capto S sepharose cation exchange column (GE Healthcare) pre-equilibrated with 50 mM sodium acetate pH 5.0. The column was washed with 5 column volumes of 50 mM sodium acetate pH 5.0 to wash out unbound protein and a linear gradient of NaCl (0 to 500 mM) was used to elute the protein (over 16 CV) from the column. Fractions were assayed for β-lactamase activity using Centa (Calbiochem, Gibbstown, N.J.) as a reporter β-lactamase substrate for activity in the isolated fractions. Active fractions were pooled, concentrated and further purified by gel filtration chromatography on a Superdex 75 prep grade gel filtration column (GE Healthcare, Piscataway, N.J.) pre-equilibrated in 50 mM Hepes pH 7.5, 150 mM NaCl. Active fractions were pooled concentrated, quantitated by BCA protein determination (Thermo Scientific, Rockford, Ill.), and frozen at −80° C. in 20% glycerol until use.
For VIM-2 metallo (β-lactamase, the procedure was identical with the following exceptions: 1) the protein was not pH adjusted to pH 5 with 50 mM sodium acetate, 2) the chromatography step was changed to a 5 ml Q sepharose anion exchange column pre-equilibrated with 50 mM Hepes pH 7.5, and 3) elution of the protein was achieved by a linear gradient of NaCl (0-600 mM). Finally, the VIM-2 purification required a second run (3rd step) on the Q sepharose anion exchange column to achieve acceptable purity (>90%).
as §1
Using the methodology described above, examples of the current invention were evaluated for their ability to inhibit β-lactamase enzymes. The results of these assays are summarized in Table 2 for representative enzymes across different subtypes (note SHV-5 and CTXM-15 exemplify different subclasses of Ambler Class A Extended Spectrum Beta Lactamases, KPC-2 exemplifies Class A carbapenemases, P99 represents chromosomal Class C AmpC, VIM-2 exemplifies subclass B1 of metallo-β-lactamases, and OXA-23 represents chromosome-encoded Class D oxacillin-hydrolyzing β-lactamases), NT=not tested.

[2] = test system: K. pneumoniae expressing the Class A Extended Spectrum Beta-Lactamase (ESBL) CTX-M-15; assay: In vitro antibacterial assay of β-lactamase inhibition (broth microdilution MIC), K. pneumoniae CTX-M-15; format: cell-based
Method in brief: (§2)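 MIC read by eye after 16-20 h at 37° C. Compounds were titrated 2-fold from 8 μg/mL down to 0.015 μg/mL (final) in CAMHB with a β-lactam antibiotic, and wells were inoculated per CLSI with strains grown 3-5 h under 50 μg/mL ampicillin.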

[3] = test system: K. pneumoniae expressing the Class A carbapenemase KPC-2; assay: microbe, parasite or virus in culture; format: cell-based
Method in brief: as §2

[4] = test system: E. coli expressing the Class A ESBL SHV-5; assay: In vitro antibacterial assay of β-lactamase inhibition (broth microdilution MIC), E. coli SHV-5; format: cell-based
Method in brief: as §2

KPC-2 β-lactamase = biological target: T3, KPC-2 β-lactamase (Klebsiella pneumoniae, UniProt Q9F663); assay: β-lactamase enzyme inhibition assay (nitrocefin substrate), KPC-2; format: biochemical
T3 construct: expressed as native untagged proteins; made in house; host or cells: E. coli BL21(DE3)
T3 sequence (Q9F663 25-293 limits assumed): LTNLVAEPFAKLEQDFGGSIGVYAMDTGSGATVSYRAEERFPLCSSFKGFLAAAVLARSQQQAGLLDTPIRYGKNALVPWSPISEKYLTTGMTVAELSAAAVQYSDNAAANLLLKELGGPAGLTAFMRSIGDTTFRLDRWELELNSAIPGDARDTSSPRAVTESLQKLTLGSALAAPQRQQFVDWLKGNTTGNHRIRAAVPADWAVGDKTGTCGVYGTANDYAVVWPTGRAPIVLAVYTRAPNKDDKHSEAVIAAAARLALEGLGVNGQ
Method in brief: (§3)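 Enzyme was first mixed with serially diluted compound (100 to 0.005 μM) in PBS pH 7.0 and held 10 min at 37 °C. Next, nitrocefin was dispensed to 100 μM final, and hydrolysis was followed at 486 nm for 10 min. Percent inhibition was then calculated from maximum rates and fitted to an IC50.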

SHV-5 β-lactamase = biological target: T4, SHV-5 β-lactamase (Klebsiella pneumoniae, UniProt P0A3M1); assay: β-lactamase enzyme inhibition assay (nitrocefin substrate), SHV-5; format: biochemical
T4 construct: expressed as native untagged proteins; made in house; host or cells: E. coli BL21(DE3)
T4 sequence (P0A3M1 22-286): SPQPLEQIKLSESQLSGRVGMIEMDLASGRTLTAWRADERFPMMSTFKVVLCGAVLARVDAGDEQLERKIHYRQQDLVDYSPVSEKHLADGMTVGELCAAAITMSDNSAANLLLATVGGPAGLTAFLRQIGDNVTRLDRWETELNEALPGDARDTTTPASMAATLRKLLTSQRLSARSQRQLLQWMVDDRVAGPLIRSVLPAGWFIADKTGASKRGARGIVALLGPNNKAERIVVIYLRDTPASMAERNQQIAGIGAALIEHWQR
Method in brief: as §3

[5] = test system: E. cloacae expressing the Class C P99+; assay: In vitro antibacterial assay of β-lactamase inhibition (broth microdilution MIC), E. cloacae P99+; format: cell-based
Method in brief: as §2

CTX-M15 β-lactamase = biological target: T5, CTX-M15 β-lactamase (Escherichia coli, UniProt Q9EXV5); assay: β-lactamase enzyme inhibition assay (nitrocefin substrate), CTXM-15; format: biochemical
T5 construct: expressed as native untagged proteins; made in house; host or cells: E. coli BL21(DE3)
T5 sequence (Q9EXV5 entry or part of it): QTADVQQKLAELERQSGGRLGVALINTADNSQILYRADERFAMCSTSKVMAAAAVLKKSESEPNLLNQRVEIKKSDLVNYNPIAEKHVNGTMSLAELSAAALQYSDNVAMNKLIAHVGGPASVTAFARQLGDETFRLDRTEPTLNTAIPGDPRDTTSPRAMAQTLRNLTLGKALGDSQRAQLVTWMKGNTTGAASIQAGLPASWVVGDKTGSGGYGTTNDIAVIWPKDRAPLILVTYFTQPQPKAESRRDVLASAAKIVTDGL
Method in brief: as §3

[6] = test system: P. aeruginosa expressing the Class B metallo β-lactamase VIM-2; assay: In vitro antibacterial assay of β-lactamase inhibition (broth microdilution MIC), P. aeruginosa VIM-2; format: cell-based; details: in presence of Ceftazidime 16 μg/mL (Examples 1-56)
Method in brief: as §2

p99 AmpC β-lactamase = biological target: T6, p99 AmpC β-lactamase (Enterobacter cloacae, UniProt P05364); assay: β-lactamase enzyme inhibition assay (nitrocefin substrate), P99 AmpC; format: biochemical
T6 construct: expressed as native untagged proteins; made in house; host or cells: E. coli BL21(DE3)
T6 sequence (P05364 21-381): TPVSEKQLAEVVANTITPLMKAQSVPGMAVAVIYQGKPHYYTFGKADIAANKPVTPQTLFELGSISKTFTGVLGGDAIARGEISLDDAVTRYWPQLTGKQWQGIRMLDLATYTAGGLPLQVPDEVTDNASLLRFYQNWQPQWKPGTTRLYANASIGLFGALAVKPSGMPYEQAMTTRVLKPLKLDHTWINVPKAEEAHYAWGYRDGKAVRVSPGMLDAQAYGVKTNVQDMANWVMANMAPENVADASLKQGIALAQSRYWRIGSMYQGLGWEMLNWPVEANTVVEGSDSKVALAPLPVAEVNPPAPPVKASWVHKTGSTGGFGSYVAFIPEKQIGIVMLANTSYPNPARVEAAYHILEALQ
Method in brief: as §3

[7] = in presence of Ceftazidime 8 μg/ml (Examples 1-56)
[8] = nitrocefin 100 μM, 37° C., PBS pH 7.0, read-out: P99 AmpC IC50
[9] = in presence of Piperacillin 16 μg/ml (Examples 57-65)

Structure (SMILES)	pIC50 (OXA-23 β-lactamase)	pIC50 [1]	MIC of example compound, K. pneumoniae CTX-M-15 [2, 7]	MIC of example compound, K. pneumoniae KPC-2 [3, 7]	MIC of example compound, E. coli SHV-5 [4, 7]	pIC50 (KPC-2 β-lactamase)	pIC50 (SHV-5 β-lactamase)	MIC of example compound, E. cloacae P99+ [5, 7]	pIC50 (CTX-M15 β-lactamase)	MIC of example compound, P. aeruginosa VIM-2 [6]	pIC50 (p99 AmpC β-lactamase; [8])	MIC of example compound, K. pneumoniae CTX-M-15 [2, 9]	MIC of example compound, K. pneumoniae KPC-2 [3, 9]	MIC of example compound, E. coli SHV-5 [4, 9]	MIC of example compound, E. cloacae P99+ [5, 9]	pIC50 (p99 AmpC β-lactamase)
NCc1cccc(C(=O)N[C@@H](Cc2cccc(C(=O)O)c2O)B(O)O)c1 [Example 1, 2(R)-3-[2-(3-(Aminomethyl)benzoylamino)-2-borono-ethyl]-2-hydroxy-benzoic acid hydrochloride]	7.19	6.82	1 µg/mL	0.125 µg/mL	4 µg/mL	7.70	6.19	0.25 µg/mL	8.52	8 µg/mL	9.00					
Cl.NCc1ccc(C(=O)N[C@@H](Cc2cccc(C(=O)O)c2O)B(O)O)cc1 [Example 2, 2(R)-3-[2-(4-(Aminomethyl)benzoylamino)-2-borono-ethyl]-2-hydroxy-benzoic acid hydrochloride]	< 6.00	7.66	2 µg/mL	0.015 µg/mL	8 µg/mL	7.89	< 6.00	0.25 µg/mL	8.70	8 µg/mL	8.52					
Cl.Nc1ccc(C(=O)N[C@@H](Cc2cccc(C(=O)O)c2O)B(O)O)cn1 [Example 7, (2R)-3-{2-[(2-Amino-pyridine-5-carbonyl)-amino]-2-borono-ethyl}-2-hydroxy-benzoic acid formate salt]	6.29	6.09	0.12 µg/mL	0.03 µg/mL	1 µg/mL	8.40	6.49	0.12 µg/mL	9.00		9.00					
Cl.Nc1cc(C(=O)N[C@@H](Cc2cccc(C(=O)O)c2O)B(O)O)ccn1 [Example 8, (2R)-3-{2-[(2-Amino-pyridine-4-carbonyl)-amino]-2-borono-ethyl}-2-hydroxy-benzoic acid]	6.84	6.15	0.5 µg/mL	0.06 µg/mL	1 µg/mL	8.30	7.54	0.5 µg/mL	7.55		8.70					
O=C(Cc1ccc(CN2CCCC2)cc1)N[C@@H](Cc1cccc(C(=O)O)c1O)B(O)O [Example 38, (1R)-[2-(4-pyrrolin-1-ylmethyl-phenyl)-acetylamino]-(3-carboxy-2-hydroxy)benzyl-methylboronic acid formate]	6.63	6.07	0.25 µg/mL	0.03 µg/mL	0.5 µg/mL	8.22	8.30	0.5 µg/mL	8.52		8.05					
Nc1cccc[n+]1Cc1ccc(CC(=O)N[C@@H](Cc2cccc(C(=O)O)c2O)B(O)O)cc1 [Example 40, (1R)-2-amino-(4-{[2-(3-carboxy-2-hydroxy-phenyl-borono-ethylcarbamoyl]-methyl}-benzyl)-pyridinium formate]	6.88	< 6.00	0.25 µg/mL		0.25 µg/mL	6.19	7.70	2 µg/mL	8.40	>8 µg/mL	8.00					
Cl.NCc1cc(CC(=O)N[C@@H](Cc2cccc(C(=O)O)c2O)B(O)O)ccn1 [Example 63, (2R)-3-{2-[(2-Aminomethyl-pyridin-4-yl-acetyl)-amino]-2-borono-ethyl}-2-hydroxy-benzoic acid hydrochloride]	6.27	6.21				7.62	8.10		8.00		8.05	>16 µg/mL	0.125 µg/mL	0.06 µg/mL	4 µg/mL	
N=C(N)NCc1cc(CC(=O)N[C@@H](Cc2cccc(C(=O)O)c2O)B(O)O)ccn1 [Example 64, (2R)-3-{2-[(2-Guanidinomethyl-pyridin-4-yl-acetyl)-amino]-2-borono-ethyl}-2-hydroxy-benzoic acid formate]	6.75	6.26				7.77	8.52		8.52			>16 µg/mL	0.125 µg/mL	0.125 µg/mL	4 µg/mL	8.10

— patent publication US20100292185A1, “BETA-LACTAMASE INHIBITORS” (priority 2009, published 2010)
